Data reported in patent US20100249248A1, “LIGAND AGENTS FOR PEROXISOME PROLIFERATOR-ACTIVATED RECEPTORS (PPARs)” (Suntory Holdings Limited, priority 2007, published 2010).
Several values for one entry are separate records, joined by “and”; a condition that tells them apart may be missing. Identical values can stand only once. One block for each compound: values may come before it.

Key:
Type in all cases: cell-based
PPARγ = molecular target: T1, PPARγ (Rattus norvegicus, UniProt O88275); assay: PPARγ ligand activity, PPRE-luciferase reporter in CHO/PPARγ/PPRE cells; conditions: Table 4; positive control run beside each sample; 25 μM
T1 construct: expressed in transfected cells
T1 sequence (O88275 1-505): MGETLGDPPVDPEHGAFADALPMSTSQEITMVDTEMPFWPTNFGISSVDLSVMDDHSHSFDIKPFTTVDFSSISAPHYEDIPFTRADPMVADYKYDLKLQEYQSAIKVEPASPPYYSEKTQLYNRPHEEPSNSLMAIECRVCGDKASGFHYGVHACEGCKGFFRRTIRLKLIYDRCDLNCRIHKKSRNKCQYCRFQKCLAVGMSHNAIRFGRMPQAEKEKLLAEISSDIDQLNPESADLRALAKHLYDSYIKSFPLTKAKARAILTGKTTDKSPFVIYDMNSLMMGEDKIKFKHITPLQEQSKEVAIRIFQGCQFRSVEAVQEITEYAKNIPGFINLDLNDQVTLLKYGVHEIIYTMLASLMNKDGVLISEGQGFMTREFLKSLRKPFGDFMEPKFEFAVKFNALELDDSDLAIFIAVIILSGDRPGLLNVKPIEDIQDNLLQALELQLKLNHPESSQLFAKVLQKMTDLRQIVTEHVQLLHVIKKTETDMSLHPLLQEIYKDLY
Source text: CHO cells used for measurement of PPARγ ligand activity were obtained in the following manner.
A PPAR reporter plasmid (pPPRE-Luc) was derived from a reporter plasmid, pGL3 (Promega), which contains the SV40 promoter gene and the firefly luciferase gene by being modified to have 3 copies of a PPAR-responsive sequence (PPRE) upstream of the SV40 promoter gene. A PPARγ expression plasmid (pKD-rPPARγ) was obtained by inserting the rat PPARγ gene into an SV40 promoter-driven expression plasmid for mammalian cells. pPPRE-Luc and pKD-rPPARγ were co-transfected into CHO(dhfr-) cells (dihydrofolate reductase-deficient cell line of Chinese hamster ovary cells) using Lipofectamine (Invitorgen). The cells were cultured in D-MEM medium (GIBCO) almost free from thymidine and containing dialyzed fetal bovine serum (GIBCO) to thereby obtain a stable transformant (CHO/PPARγ/PPRE) retaining pPPRE-Luc and pKD-rPPARγ.
The above cells were seeded in 96-well culture plates at 1×10^4 cells/well and cultured at 37° C. under 5% CO2 for 24 hours. […] After washing with phosphate-buffered saline (PBS-), the cells were lysed with a cytolysis solution (Cell Culture Lysis Reagent: Promega) and measured for the luminescence intensity of luciferase with a multilabel counter (Wallac) in the presence of a Luciferase Assay Reagent (Promega). […]

PPARδ = molecular target: T2, PPARδ (Mus musculus, UniProt P35396); assay: PPARδ ligand activity, GAL4::mPPARδ luciferase reporter assay in HepG2 cells
T2 construct: expressed in transfected cells; host or cells: HepG2 cells (human liver cancer-derived)
T2 sequence (P35396 1-440): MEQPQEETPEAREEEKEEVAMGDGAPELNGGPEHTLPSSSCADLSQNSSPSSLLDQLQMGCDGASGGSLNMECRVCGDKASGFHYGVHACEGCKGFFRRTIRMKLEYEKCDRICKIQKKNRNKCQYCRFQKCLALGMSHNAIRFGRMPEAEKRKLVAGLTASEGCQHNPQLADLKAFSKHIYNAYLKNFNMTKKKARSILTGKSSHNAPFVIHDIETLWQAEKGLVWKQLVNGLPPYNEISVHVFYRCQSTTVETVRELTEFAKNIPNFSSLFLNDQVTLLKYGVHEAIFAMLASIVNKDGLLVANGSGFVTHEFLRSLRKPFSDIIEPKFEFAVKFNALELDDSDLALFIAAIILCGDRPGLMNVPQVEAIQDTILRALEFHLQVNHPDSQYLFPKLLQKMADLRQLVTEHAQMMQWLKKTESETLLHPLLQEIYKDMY
Description: HepG2 cells (human liver cancer-derived cultured cells) were seeded in 96-well culture plates at 1×10^4 cells/well and cultured at 37° C. under 5% CO2 for 24 hours. The medium used was RPMI1640 (Nissui Pharmaceutical Co., Ltd., Japan) containing 10% FBS (fetal bovine serum; Equitech-Bio) and 0.3 g/L L-Glutamine (Nissui Pharmaceutical Co., Ltd., Japan). These cells were washed with OPTI-MEM (Gibco) and then transfected with pBIND/GAL4::mPPARδ and pG51uc (Promega). […]
At about 24 hours after transfection, the medium was replaced with another medium containing a plant extract, followed by culturing for 24 hours. […] After washing with phosphate-buffered saline (PBS—), the cells were lysed with a cytolysis solution (Cell Culture Lysis Reagent: Promega) and measured for the luminescence intensity of luciferase with a multilabel counter (Wallac) in the presence of a Luciferase Assay Reagent (Promega). […] For assessment of ligand activity, the ratio of luminescence intensity in a sample to that in the control (vehicle control) was defined as the luminescence ratio of PPARδ ligand activity in the sample, and a sample showing a value of 1.3 or greater was determined as having PPARδ ligand activity.
The ethanol extract of each plant obtained in Sample Preparation Example 2 was measured for its PPARγ ligand activity in the same manner as shown in Example 1. […]

PPARα = molecular target: T3, PPARα (Mus musculus, UniProt P23204); assay: PPARα ligand activity, GAL4::mPPARα luciferase reporter assay in HepG2 cells; conditions: Table 3; positive control run beside each sample; 25 μM
T3 construct: expressed in transfected cells; host or cells: HepG2 cells (human liver cancer-derived)
T3 sequence (P23204 1-468): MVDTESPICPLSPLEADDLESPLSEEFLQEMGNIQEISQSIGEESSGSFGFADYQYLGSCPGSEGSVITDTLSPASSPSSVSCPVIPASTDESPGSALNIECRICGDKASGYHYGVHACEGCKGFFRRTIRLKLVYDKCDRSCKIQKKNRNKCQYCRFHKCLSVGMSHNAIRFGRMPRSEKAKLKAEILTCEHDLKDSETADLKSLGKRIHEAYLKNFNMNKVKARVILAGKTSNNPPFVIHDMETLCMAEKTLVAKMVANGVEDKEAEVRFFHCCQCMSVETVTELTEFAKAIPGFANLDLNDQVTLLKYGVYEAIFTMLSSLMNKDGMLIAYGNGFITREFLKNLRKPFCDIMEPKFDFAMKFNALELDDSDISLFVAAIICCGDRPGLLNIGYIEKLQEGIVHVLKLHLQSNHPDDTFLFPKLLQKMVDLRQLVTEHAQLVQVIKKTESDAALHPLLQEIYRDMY
Description: HepG2 cells (human liver cancer-derived cultured cells) were seeded in 96-well culture plates at 1×10^4 cells/well and cultured at 37° C. under 5% CO2 for 24 hours. The medium used was RPMI1640 (Nissui Pharmaceutical Co., Ltd., Japan) containing 10% FBS (fetal bovine serum; Equitech-Bio) and 0.3 […] Pharmaceutical Co., Ltd., Japan). […] At about 24 hours after transfection, the medium was replaced with another medium containing a plant extract, followed by culturing for 24 hours. As a vehicle control, DMSO was used and added in 1/100 volume to the medium. After washing with phosphate-buffered saline (PBS-), the cells were lysed with a cytolysis solution (Cell Culture Lysis Reagent: Promega) and measured for the luminescence intensity of luciferase with a multilabel counter (Wallac) in the presence of a Luciferase Assay Reagent (Promega). On the other hand, a synthetic PPARδ agonist, L-165041 (Sigma, […]), was used as a positive control. […] On the other hand, a synthetic PPARα agonist, WY-14643 (Sigma, 25 μM), was used as a positive control.

SMILES: CC1(COc2ccc(CC3SC(=O)NC3=O)cc2)CCCCC1 (stereo not shown) [Ciglitizone]
- Luminescence ratio in Ciglitizone (PPARγ): 2.2 and 2.5 and 2.6 and 2.7 and 3.0 and 2.4

- Luminescence ratio in L-165041 (PPARδ; Table 6, positive control run beside each hot water extract): 4.5 and 3.8 and 6.2 and 5.8
SMILES: CCCc1c(OCCCOc2ccc(OCC(=O)O)cc2)ccc(C(C)=O)c1O [L-165041]
- Luminescence ratio in L-165041 (PPARδ; Table 5, positive control run beside each ethanol extract): 4.5 and 4.9 and 6.1 and 6.2 and 5.2 and 4.8 and 4.7

- Luminescence ratio in WY-14643 (PPARα): 4.2 and 4.4 and 7.6
SMILES: Cc1cccc(Nc2cc(Cl)nc(SCC(=O)O)n2)c1C [WY-14643]
